Data as given in patent US6797698B1, “Method of treating prolonged critical illness and other conditions having a similar neuroendocrine pattern” (K.U. Leuven Research & Development, priority 1998, dated 2004).

Columns and labels:
[1] = test system: GH secretion and GH-dependent parameters; experiment: 21 h (21-45 h) infusion in protracted critical illness: GH secretion and GH-dependent parameters; format: in vivo, human
Method: The inventors have also shown that infusion of GHRP-2 for 21 h in this condition increases pulsatile GH secretion >6-fold, associated with increases in IGF-I, IGFBP-3 and ALS. […] This observation strongly favors the presence of active feedback inhibition preventing overcorrection of the somatotropic axis with this strategy. Treatment with high doses of recombinant human GH has recently shown to increase morbidity and mortality of critical illness. The inability to overtreat with GH-secretagogues is an important advantage over exogenous GH, especially in the vulnerable critically ill elderly.

[2] = test system: TSH secretion and thyroid hormone levels; experiment: 21 h (21-45 h) infusion in protracted critical illness: TSH secretion and thyroid hormones; format: in vivo, human; details: 21 h infusion
catabolism = experiment: LHRH effect on catabolism resulting from testosterone deficiency; details: in vivo
From the text: Optionally the administration of GHRP and TRH can be supplemented with Luteinizing Hormone Releasing Hormone (LHRH). A shortage of pulsatile LH secretion can lead to testosterone deficiency in males, which in turn can cause an increase in catabolism.

Compound: NC(=O)[C@@H]1CCCN1C(=O)[C@H](Cc1cnc[nH]1)NC(=O)[C@@H]1CCC(=O)N1 [TRH, Thyroid Releasing Hormone]
- GH-dependent parameters (in words) ([1]; 21 h infusion): did not alter
- TSH secretion (in words) [2]: increasing
- thyroid hormone levels (in words) [2]: increasing

Compound: GHRP-2
- ALS (in words) ([1]; infusion for 21 h): increases
- IGF-I (in words) ([1]; infusion for 21 h): increases
- IGFBP-3 (in words) ([1]; infusion for 21 h): increases
- increase in pulsatile GH secretion ([1]; infusion for 21 h): > 6 fold

Compound: Luteinizing Hormone Releasing Hormone (QHWSYGLRPG; Gonadoliberin-1; UniProt P01148 24-33, looked up) [LHRH, Luteinizing Hormone Releasing Hormone, optional supplement to GHRP and TRH]
- effect on catabolism that results from testosterone deficiency (in words) (catabolism): no effect
